Measurements: US20260345654A1, “2,8-DIHYDROXYQUINOLINE GLUCURONIDE DERIVATIVES WITH ENHANCED PROPERTIES FOR USE AS ANTICANCER, ANTIVIRAL, ANTIMICROBIAL, AND OTHER THERAPEUTIC APPLICATIONS” (priority 2023, published 2026)
Entries after “also recorded” stand apart in the source; their conditions may differ. Read-outs that look alike come from different tables or passages of the source.

Key:
Chemical stability = assay type: physicochemical
squamous cell carcinoma = assay: Case study, topical W1469, squamous cell carcinoma (Individual 4); assay type: in vivo, human
Description: (§1) Topical gel containing 0.5 mg/ml W1469 in proprietary aqueous alcohol gel, applied initially once daily using a suitable topical applicator.
(§2) In general, the Treatment/Patient protocol used for the patient testing was as follows: • 1. Photograph the application site prior to starting the protocol. Note any changes in lesion size, color, etc. of treatment area. • 2. Remove a loaded syringe from the freezer, dry ice or refrigerator and allow to gradually warm to room temperature. • 3. Photograph the syringe each time prior to application. Note the color of the gel contained in the syringe. • 4. Lightly clean the skin surface with alcohol wipe. • 5. […] Let the liquid from the gel absorb into the site without disturbing. Apply once a day at the same time. • 6. Re-cap the syringe and store in the refrigerator until completely used. • 7. Repeat 1-6 each daily during application period. It is noted in this protocol that photographing the syringe used with each application period accomplishes two things.
Physician administered, variable treatment protocol, drug concentrations and vehicle carrier. A person with 2 mm ulcerative lesion (squamous cell carcinoma) to the post-auricular area of left side of the head. The lesion area had been biopsied and treated with cryotherapy one year prior. Lesion area had begun to reappear 3 months prior to this photo. After three days of once daily treatment, the same lesion was already reduced to approximately ½ of original size. […] Note: Subject's initial dosing schedule was once daily. […] Upon next visit (three days after initial dosing) […] dose was doubled while maintaining a once daily schedule. Over the next three days their lesion resolved completely and without any adverse reactions noted.

SU.86.86 cells = assay: In vitro anti-proliferation (CellTiter-Glo, 72 hr), SU.86.86; assay type: cell-based
Description: (§3) Commercially available 8HQ and freshly synthesized G2-8HQ were prepared for in vitro anti-proliferative studies against the following cell lines with and without the presence of 10 μM Cu(+2): (1) A549: […]; (2) BT-549: epithelial cells from ductal tumor; (3) DU-145: human prostate cancer; (4) PANC-1: pancreatic cancer; (5) SU.86.86: a new adoptive pancreatic cell for immunotherapy studies; (6) RL: non-Hodgkin's lymphoma; (7) LnCAP, Prostate cancer cell line; (8) A431, a squamous cell carcinoma line; and (9) UACC-62 a malignant melanoma cell line.
(§4) With regard to the study protocol used, the objective was to conduct a study of the cytotoxicity of W1469 against several cancer cell lines. In the study protocol, preparations for the A549 (Lung) cell line screen are given as an example. The following materials were used: (1) FBS (2) RPMI-1640 medium supplemented with 10% FBS:’ and (3) A549 Cells. The four samples tested are referred to as Items 1-4 below and were placed at 4 °C upon arrival. These four samples were as follows: • Item 1: Tube A (W1469) (500 uM when FBS added) • Item 2: Tube B (W1469g) (1000 uM when FBS added) • Item 3: Tube C (W1469) • Item 4: Tube D (W1469g)
(§5) Add 50 μL of above 2× stocks to appropriate wells to expose appropriate cells to the final dilutions of samples. Add 50 μL media to media and cell control wells and 50 μL media mix to vehicle control wells. Cells are exposed for 72 hr. Following a 72 hr exposure to Sample, perform a CTG assay on all remaining plates.
(§6) At the end of the 72 hr exposure period, remove plates for CellTiter-Glo assay from 37 °C, 5% CO2 incubator and place on the bench at room temperature for 30 mins. Add 100 μL CellTiter-Glo reagent, mix for 2 mins, followed by a further 10 min incubation at room temperature. Record luminescence. Tables showing the resulting plate layouts are included below/

A431 cells = assay: In vitro anti-proliferation (CellTiter-Glo, 72 hr), A431; assay type: cell-based
Description: as §3, §4, §5, §6
The other cancer cell lines tested gave similar results. […] Three additional cell lines were also studied and described more completely in Example 9 provided herein. These cell lines included cytotoxicity testing of WT1469 (G2-8HQ) against LnCAP a prostate cancer, A431 a squamous carcinoma cell line and UACC-62 a malignant melanoma cell line. All were complexed in situ with copper immediately prior to testing. The results from these additional cell lines and incorporated in Table 2 and Example 9.

[1] = tested on: basal cell and squamous cell cancer; assay: Case studies overview, topical W1469; assay type: in vivo, human
Description: as §1, §2
• 1. Toleration/toxicity • 2. Application methodology • 3. Any visual indications of efficacy • 4. Patient feedback Study Duration: Varied case by case. Generally, two weeks to two months

SMILES: O=C(O)[C@H]1O[C@@H](Oc2ccc3cccc(O)c3n2)[C@H](O)[C@@H](O)[C@@H]1O [G2-8HQ, 8-Hydroxy-2-quinolinyl beta-D-glucopyranosiduronic acid]
- stability (Chemical stability; aqueous solutions, pH values lower than 8, or over time in organic solvents): less stable
- stability (Chemical stability; dissolving in DMSO (without copper)): yields over time the precipitated degradation product of the keto form of 2-8HQ
- stability (Chemical stability; neutral or physiological pH in the plasma): chemically stable
- stability (Chemical stability; pH of 5): degrade the compound almost immediately
- lesion size (fraction of original size) (squamous cell carcinoma; Individual 4, after three days of once daily treatment): approximately ½
- adverse reactions (squamous cell carcinoma; Individual 4, once daily, dose doubled after three days): no adverse reactions
- lesion resolution (squamous cell carcinoma; Individual 4, regular treatment for one week): complete resolution of the patient's lesion
- cytotoxicity (SU.86.86 cells; 1 and 0.5 μM, presence of Cu^+2 ions, wide standard deviation): in a percentage of cases, all of the cancer cells were killed at concentrations between at 1 and 0.5 μM; also recorded: in some % of the screens all the cancer cells were killed at these concentrations
- IC50 (SU.86.86 cells; +Cu (10 μM), 72 hr, G2-8HQ values based on MW of apo form (337), read-out: IC50): 13 µM
- IC50 (SU.86.86 cells; Homo sapiens, SU.86.86, 72 h, +Cu (10 μM), 72 hr, G2-8HQ values based on MW of apo form (337), read-out: IC50): 10 µM
- IC50 (SU.86.86 cells; Homo sapiens, SU.86.86, 72 h, −Cu, 72 hr, read-out: IC50): > 500 µM
- IC50 (SU.86.86 cells; Homo sapiens, SU.86.86, complexed with Cu, multiplied by 337/776=0.43, column 3 duplicate of column 2, read-out: IC50 (adjusted to MW of copper complex)): 4.3 µM
- IC50 (SU.86.86 cells; complexed with Cu, multiplied by 337/776=0.43, column 3 duplicate of column 2, listed as W1469, read-out: IC50 (adjusted to MW of copper complex)): 5.6 µM
- IC50 (A431 cells; +Cu, complexed in situ with copper immediately prior to testing, not based on apo MW, read-out: IC50): 85 µM
- IC50 (A431 cells; Homo sapiens, A-431, +Cu, complexed in situ with copper immediately prior to testing, not based on apo MW, read-out: IC50): 64 µM
- IC50 (A431 cells; Homo sapiens, A-431, complexed with Cu in situ, * differences with or without excipient, suboptimal complexing, read-out: IC50 (adjusted to MW of copper complex)): 63.2 µM
- IC50 (A431 cells; complexed with Cu in situ, * differences with or without excipient, suboptimal complexing, listed as W1469, read-out: IC50 (adjusted to MW of copper complex)): 83.4 µM
- Side Effects ([1]; all 4 case studies): No side effects were noted
- appearance of skin surrounding the cancer lesion(s) ([1]; all 4 case studies): Marked improvements in general appearance of skin surrounding the cancer lesion(s)
- cancer lesion size ([1]; all 4 case studies): Progressive reduction of cancer lesion size
- dose dependency ([1]; all 4 case studies): higher concentrations work better
- effect on adjacent tissue ([1]; all 4 case studies): Doesn't inflame or injure adjacent tissue
- pain of treatment and application ([1]; all 4 case studies): not painful
- time to rapid elimination of pain and visible inflammation ([1]; all 4 case studies): 2 to 5 days
- toxicity ([1]; topical gel 0.5 mg/ml, once daily initially): no toxicity was observed
